Measurements taken from PMC8698299, “Targeting Mycobacterial F-ATP Synthase C-Terminal α Subunit Interaction Motif on Rotary Subunit γ” (Antibiotics, 2021).

Target: T1, F-ATP synthase (subunit γ, site proposed by docking) (Mycolicibacterium smegmatis, UniProt A0R201)
T1 construct: gene atpG; Recombinant M. smegmatis WT F-ATP synthase, purified and reconstituted into proteoliposomes; with other F-ATP synthase subunits (α3:β3:γ:δ:ε:a:b:b’:c9), in particular subunit α
Assay: ATP synthesis by reconstituted recombinant MsF-ATP synthase, continuous luciferase assay (also IMV ATP synthesis, IC50 […])
Type: biochemical

T1 sequence (A0R201 2-307): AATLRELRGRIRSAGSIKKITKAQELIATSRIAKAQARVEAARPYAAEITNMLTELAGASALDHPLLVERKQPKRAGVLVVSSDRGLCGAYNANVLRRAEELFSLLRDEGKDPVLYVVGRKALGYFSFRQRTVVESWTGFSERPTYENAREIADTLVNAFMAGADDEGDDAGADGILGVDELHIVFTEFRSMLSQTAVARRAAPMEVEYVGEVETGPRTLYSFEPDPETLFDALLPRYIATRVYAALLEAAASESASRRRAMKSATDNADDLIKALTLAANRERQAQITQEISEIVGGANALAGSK

Work on `COc1cc(NC(=O)C2=C(C)OCCS2)c(Cl)cc1C(=O)NCCCN1CCCC1=O` [AlMF1, N-(2-chloro-5-methoxy-4-((3-(2-oxopyrrolidin-1-yl)propyl)carbamoyl)phenyl)-2-methyl-5,6-dihydro-1,4-oxathiine-3-carboxamide] yielded an inhibition at 50 µM of 71%.
